Here are results for one molecule from patent US6646006B2, “Enhancement of vascular function by modulation of endogenous nitric oxide production or activity” (The Board of Trustees of the Leland Stanford Junior …, priority 1993, dated 2003).

Series [1] has as its system rabbit aortic endothelium. As to the kind of experiment: Ex vivo binding of WEHI 78/24 monocytoid cells to rabbit aortic endothelium. The series is classed as in vivo. As to conditions: two weeks, L-arginine supplementation.
Description: Methods. Animals. Male New Zealand White rabbits were pair fed, receiving one of the following dietary interventions for two weeks: normal rabbit chow (Cont, n=7); rabbit chow enriched with 1% cholesterol (Chol, n=7); or 1% cholesterol chow supplemented with 2.25% L-arginine HCl in the drinking water (Arg, n=7) ad libitum throughout the course of the study. […] One day before sacrifice (after 2 weeks of dietary intervention), animals were lightly sedated and the central ear artery was cannulated for collection of blood samples.
Mononuclear cell culture and isolation. Murine monocytoid cells, WEHI 78/24 cells were grown in Dulbecco's Modified Eagle's Medium supplemented 10% fetal calf serum (vol/vol) and were kept in an atmosphere of 5% CO2/95% air. Prior to binding studies, mononuclear cells were fluorescently labeled with TRITC (3 μg/ml). To confirm the results using WEHI cells, in some studies binding studies were performed in parallel using rabbit mononuclear cells. Mononuclear cells were isolated from fresh whole blood of Control rabbits before sacrifice.
Preparation of aortic endothelium and binding assay. […]
After 10 minutes the HBSS medium was replaced by binding medium containing WEHI cells. […] The aortic segments were then removed and placed on a glass slide, and adherent cells counted under epifluorescent microscopy from at least 30 sites on each segment.
The subject of series [2] is hypercholesterolemic rabbits. As to the kind of experiment: Oral arginine in cholesterol-fed rabbits: biochemical and physiological measurements. The format is in vivo, rabbit. As to conditions: 1% cholesterol diet + 2.25% L-arginine HCl in drinking water, vs Control or Chol diet. From the text:
Study design: (See, Cooke et al., 1992, supra) Male New Zealand white rabbits (n=49) were assigned to one of three treatment groups: 10 were fed with normal rabbit chow for ten weeks (Control); 19 received chow enriched with 1% cholesterol (Chol); and 20 received a 1% cholesterol diet supplemented with 2.25% L-arginine hydrochloride in the drinking water (Arg.). […] Subsequently the animals were sacrificed and the left main coronary artery and the thoracic aorta were harvested for studies of vascular reactivity and histomorphometry. In some animals, blood was collected for studies of platelet and monocyte reactivity.
Results: Biochemical and physiological measurements. […] Serum cholesterol measurements were elevated equally in both groups receiving the 1% cholesterol diet [50±6 vs. 1629±422 vs. 1852±356 mg/dl respectively for Control (=10), Chol (=13), and Arg (=14)].

Another series deals with coronary arteries. As to the kind of experiment: Coronary response to intracoronary acetylcholine after intravenous L-arginine in cardiac transplant recipients. The series is classed as in vivo, human. Here is the method: Cardiac transplant recipients scheduled for elective annual coronary angiography at Stanford University hospital were screened for possible participation in the study. The study protocol was approved by the Stanford University Committee on Human Subjects in Medical Research. All patients gave written informed consent. Eighteen patients who had cardiac transplantation 1 to 13 years previously were studied.
Vasoactive medications were discontinued at least 12 hours before the study. […] An infusion catheter was then advanced over a Doppler flow velocity guide wire into a nonbranching segment of the coronary artery for infusion of acetylcholine (which stimulates the endothelium to release NO). After baseline angiography was performed, increasing concentrations of acetylcholine were serially infused over 3 minutes. Infusion of acetylcholine continued until the maximum dose (10^−4 mol/L) was reached or until total coronary occlusion occurred. Then an intravenous infusion of L-arginine (30 g over 15 minutes) was performed. Thereafter, the intracoronary infusion of acetylcholine was repeated. Coronary angiography and Doppler flow velocity recording was performed at the end of the L-arginine infusion and after the infusion of each concentration of acetylcholine.

Series [3] has as its system forearm resistance vessels. As to the kind of experiment: Forearm blood flow response to methacholine (plethysmography) after intravenous L-arginine. The format is in vivo, human. From the text:
The control subject population in this study included 11 normal volunteers comprising (10 males and 1 female). Their ages ranged from 31 to 49 and averaged 39±2 yr. There were 14 patients with hypercholesterolemia. Hypercholesterolemia was defined as a serum LDL cholesterol level greater than the 75th percentile adjusted for age and sex. These individuals included 11 males and 3 females whose ages ranged from 22 to 48 and averaged 38±2 years.
Under local anesthesia and sterile conditions, a polyethylene catheter was inserted into a brachial artery of each subject for determination of blood pressure and for infusion of drugs. A separate polyethylene catheter was inserted into the antecubital vein for infusion of L-arginine. Bilateral forearm blood flow was determined by venous occlusion strain gauge plethysmography, using calibrated mercury-in-silastic strain gauges, and expressed as ml/100 ml tissue per min.
To assess NO-dependent vasodilation, methacholine chloride (which induces the endothelium to release NO) was administered via the brachial artery. Forearm blood flow was measured during infusion of methacholine chloride at concentrations of 0.3, 3, and 10 μg/min each for 3 min.
After completion of the methacholine chloride infusions, all normal subjects and 10 individuals with hypercholesterolemia were given L-arginine intravenously over 30 minutes and then the methacholine infusions were repeated. D-arginine, the enantiomer of L-arginine, is not a precursor of NO. Thus, to ensure that any observed effects of L-arginine were due to its contribution to the synthesis of NO and not just secondary to its physiochemical properties, five individuals with hypercholesterolemia received D-arginine intravenously.

For another series, the system named is MCP-1. As to the kind of experiment: Northern analysis of MCP-1 expression in thoracic aortae. As to conditions: two weeks; L-NA on normal chow, Arg on high cholesterol diet. The format is in vivo, rabbit. From the text:
To investigate the role of endogenous NO in the regulation of MCP-1 in vivo, NZW rabbits were fed normal chow, normal chow plus nitro-L-arginine (L-NA) (to inhibit vascular NO synthesis), high cholesterol diet (Chol), or high cholesterol diet supplemented with L-arginine (Arg) (to enhance NO synthesis). After two weeks, thoracic aortae were harvested and total RNA was isolated. […] These studies indicate that the anti-atherogenic effect of NO may be mediated in part by its inhibition of MCP-1 expression. NO inhibits the generation of superoxide anion by the vascular cells and thereby turns off an oxidant-responsive transcriptional pathway (i.e. NFκB-mediated transcription) activating MCP-1 expression.

The next series deals with human monocytes. Put plainly: Ex vivo binding of human monocytes to bEnd3 endothelial cells after oral L-arginine. The series is classed as in vivo. Here is the method:
The control subject population in this study included 12 normal volunteers, (10 males and 2 females), with an average age of 37±2 yrs. Normalcy was determined by a careful history, physical examination, and laboratory analysis to exclude individuals with hematologic, renal, or hepatic dysfunction or clinically evident atherosclerosis. There were 20 patients (10 males and 10 females) with hypercholesterolemia as defined by a total plasma cholesterol greater than 240 mg/dl and a LDL cholesterol level greater than 160 mg/dl. […] None of the subjects were taking diuretics, vasoactive medications, antiplatelet or hypolipidemic medications. This study was approved by the Stanford University Administrative Panel on Human Subjects in Medical Research and each subject gave written informed consent before entry into the study. Blood was drawn from each subject in the postabsorptive state.
We isolated human monocytes from citrated venous blood. The blood was centrifuged and the buffy coat removed and resuspended with HBSS. The suspension was then carefully layered onto a cushion of 1.068-d Histopaque, and centrifuged. After centrifugation, the monocytes were aspirated.
We used the transformed endothelial cell (EC) line, bEnd3 to examine monocyte-endothelial binding ex vivo. The bEnd3 cells express endothelial adhesion molecules and bind monocytes in a cytokine-inducible fashion with kinetics similar to those observed with human umbilical vein endothelium. Monocytes were added to the wells containing the endothelial monolayers to reach a final cell number of 3×10^6/ml. In some studies, monocytes were exposed in vitro for 30 minutes to sodium nitroprusside (an NO donor) prior to the binding assay.
The six-well plates were transferred to a rocking platform and rocked for 30 minutes at room temperature. After 30 minutes, the cell suspension was aspirated from each well and wells were then rinsed with binding buffer to remove nonadherent monocytes. Videomicroscopic counting of adherent cells was performed using a computer aided image analysis system.
To confirm this effect of L-arginine treatment and to control for any experimental bias, a double-blinded, placebo-controlled, randomized study was performed. Ten hypercholesterolemic subjects were randomized (1:2) to placebo or L-arginine treatment; 6 normocholesterolemic individuals were studied in parallel to control for variation over time in the binding assay. At baseline, the adhesion of monocytes from both hypercholesterolemic groups was increased in comparison to the normocholesterolemic individuals (p<0.001). After 2 weeks of L-arginine administration, there was an absolute reduction of 53% in monocyte binding (n=7, p<0.005, baseline vs 2 weeks) (FIG. 11). By contrast, there was no significant change in the adhesiveness of monocytes isolated from hypercholesterolemic individuals treated with placebo.

Where [4] appears, read: two weeks after discontinuation of L-arginine.

SMILES strings stand for the structures. Entries after “also recorded” stand apart in the source; their conditions may differ.

For `N=C(N)NCCC[C@H](N)C(=O)O` [L-arginine], the “increased WEHI cell binding to aortic endothelium of hypercholesterolemic animals” value in series [1] was “significantly attenuated”. In addition, the plasma arginine levels entry in series [2] was “twofold elevation”. The “complications or side-effects of the infusion” value in the series on coronary arteries (30 g i.v. over 15 minutes) is “no complications or side-effects”. In addition, the “Epicardial coronary vasoconstriction caused by acetylcholine” value in the series on coronary arteries (acetylcholine 10^−4 mol/L, after L-arginine 30 g i.v. over 15 minutes) is reported as −2.8%. Moreover, in the series on coronary arteries (after L-arginine 30 g i.v.), the “increase in coronary blood flow to acetylcholine” value is on record as “significantly enhanced; also recorded: improved”. Also, the “augmentation of the vasodilation to methacholine chloride” value in series [3] (hypercholesterolemic subjects, intravenous over 30 minutes) turned out to be 25%. In addition, the “complications or side-effects of the infusions” value in series [3] (intravenous) was “no complications or side-effects”. The “vasodilation during methacholine chloride” value in series [3] (normal subjects, intravenous over 30 minutes) is listed as “did not potentiate”. In the series with MCP-1, the “expression of MCP-1 in aortae” value is “decreased”. Besides, the “adhesiveness of monocytes compared with normal subjects” value in the series on human monocytes (after 2 weeks of arginine treatment) was “no different from those of the normal subjects”. Besides, the “absolute reduction in monocyte binding” value in the series with human monocytes (double-blinded placebo-controlled, baseline vs 2 weeks, n=7) is recorded as 53%. Besides, the “decrease in monocyte adhesiveness” value in the series with human monocytes (open-label, 3 individuals, 2 weeks) worked out at 38%. In addition, in the series with human monocytes (setting [4]), the “increase in binding vs that after 2 weeks of L-arginine therapy” value was determined as 30±9% and the “increase in bound cells/hpf vs normocholesterolemic individuals” value turned out to be 34±9%.
